Reference: patent US20230108730A1, “BIENZYMATIC BIOSENSOR FOR THE DETECTION OF LACTULOSE IN BLOOD” (TRIVIUMVET DESIGNATED ACTIVITY COMPANY, priority 2020, published 2023)

How the values were obtained:
gastric ulcers = settings: foals; ulcers associated with intravenous high-dose NSAIDs; cited from earlier work
H-2 receptors = H-2 receptors (Homo sapiens, UniProt P25021); settings: human subjects, administered intravenously; cited from earlier work
gastric ulceration = experiment: Omeprazole treatment of study dogs with NSAID-induced gastric ulceration; assay type: in vivo, dog; settings: 0.5 to 1.0 mg/kg twice daily for 3 weeks
[1] = Plasma lactulose after oral lactulose solution in canine NSAID-induced gastric ulceration model (ion chromatography); assay type: in vivo, dog; settings: for concentration at 10 min / concentration at 20 min / concentration at 30 min / concentration at 60 min: dog, plasma, po; for concentration at 20 min: 20 min after 0.6-0.7 g/kg PO; for concentration at 30 min: 30 min after 0.6-0.7 g/kg PO; for concentration at 60 min: 60 min after 0.6-0.7 g/kg PO
Description: A model of canine gastric ulceration was developed using a combination of orally administered nonsteroidal anti-inflammatory drugs (NSAIDs) at doses appropriate to induce ulceration without concomitant renal or hepatic dysfunction. Healthy laboratory dogs (14.0 to 16.7 kg) were screened to exclude individuals with clinically silent disorders, including gastrointestinal disease. Under the GCP study protocol, each dog was administered 50 ml of a 20% w/v lactulose solution orally (0.6-0.7 g/kg lactulose PO) following a 24-h fast at baseline and following a period of ulcer induction. On each occasion, peripheral venous blood was drawn from each dog into 1.3-ml Sarstedt blood tubes containing lithium heparin as an anticoagulant at 10, 20, 30 and 60 minutes following bolus administration of the lactulose solution. The Sarstedt tube product number was 41.1393.005. Blood samples were centrifuged for 15 minutes at 3000 rpm, before decanting plasma into plain tubes; plasma was stored at −80° C. until analysis. Prior to lactulose administration, endoscopy was performed on each dog, and the presence and extent of gastric ulceration were assessed by a blinded specialist veterinary gastroenterologist. Following confirmation of the presence of ulceration, NSAID administration was discontinued and post ulcer induction lactulose administration and plasma collection were performed. Frozen plasma samples were transported under GMP conditions at −80° C. to an analytical facility. Following thawing, the samples were analysed for lactulose concentration using an ion chromatography method previously developed using blank plasma samples spiked with known concentrations of lactulose. [table] Sample preparation for Ion Chromatography analysis: 200 μL aliquots of liquid from each of the plasma samples were diluted to 1000 μL with acetonitrile. The samples were vortexed thoroughly, followed by centrifugation at 15000 rpm for 10 minutes. The supernatants were analysed directly by ion chromatography. Analysis was performed in duplicate. Calibration Curve: Calibration curves were prepared in the blank plasma sample. Briefly, plasma samples were spiked with varying concentrations of lactulose and were then diluted with acetonitrile to the required final concentration range. The samples were then processed as described above before analysis by ion chromatography. Samples were analysed in duplicate. Linearity was established for plasma lactulose concentrations in the range 5 to 250 μM.

[2] = Electrochemical dual-enzyme (β-Gal/GalOx) biosensor quantification of lactulose in canine plasma sample by amperometry; assay type: in vivo; settings: dog, oral, canine plasma sample CAN 84049 D6 t60, standard additions calibration, read-out: lactulose concentration in the original plasma sample
Text: An electrochemical biosensor for the indirect detection of lactulose in buffer and plasma samples used an electrocatalytic surface as the working electrode which was modified with a dual enzyme system comprising β-galactosidase (β-Gal) and galactose oxidase (GalOx). The electrochemical biosensor comprised a 3-electrode system of a working electrode (the dual enzyme-modified Pt electrode), an Ag/AgCl reference electrode, and a Pt wire as auxiliary electrode.
The enzymes were immobilised on the surface of the working electrode using a cross-linker. A 2 mm diameter Pt disk was used as the electrocatalytic surface for the working electrode. […]
The three electrodes were immersed in 2 mL of PBS solution 0.1 M pH 7.3 at 35° C. to comprise the electrochemical cell and an oxidative potential of +600 mV was applied between the working and reference electrodes for quantification of lactulose in a canine plasma sample by amperometry, as illustrated in FIG. 5. […]
Following this 200 μL of canine plasma (CAN 84049 D6 t60) was added to the cell and the current response was monitored for a period of 400 s.
Three sequential additions of a volume of 1 mM Lactulose standard (V1=75 μL; V2=80 μL; V3=85 μL) were then added to the cell and the current response was monitored for 400 s after each addition. […]

[3] = ulceration Moderate to severe (n = 4)

Chain of H-2 receptors (P25021 whole entry): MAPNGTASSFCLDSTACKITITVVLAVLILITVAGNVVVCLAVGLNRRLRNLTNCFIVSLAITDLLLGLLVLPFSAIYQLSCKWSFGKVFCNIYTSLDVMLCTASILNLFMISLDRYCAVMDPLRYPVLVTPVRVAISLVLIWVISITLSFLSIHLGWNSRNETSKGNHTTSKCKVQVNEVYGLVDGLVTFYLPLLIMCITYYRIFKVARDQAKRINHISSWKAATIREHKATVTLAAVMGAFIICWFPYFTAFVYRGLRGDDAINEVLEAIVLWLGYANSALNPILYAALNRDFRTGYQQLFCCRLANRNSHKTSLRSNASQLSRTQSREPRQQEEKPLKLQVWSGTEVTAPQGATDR

For sucralfate, the “effect on gastric ulcers” value (gastric ulcers) is listed as “protective effect”.

For `NC(N)=Nc1nc(CSCCC(N)=NS(N)(=O)=O)cs1` [famotidine], the “time to occurrence of tolerance” value (H-2 receptors) is listed as 12 to 72 h.

With `COc1ccc2[nH]c([S+]([O-])Cc3ncc(C)c(OC)c3C)nc2c1` (centres unmarked) [omeprazole] the “time to resolution of laboratory evidence of gastric ulceration (anemia, inflammatory leucogram, hypoalbuminaemia)” value (gastric ulceration) was at most 3 weeks.

With `OC[C@H]1O[C@@H](O[C@@H]2[C@@H](CO)OC(O)(CO)[C@H]2O)[C@H](O)[C@@H](O)[C@H]1O` (mixture of isomers) [Lactulose, lactulose] the concentration at 10 min ([1]; 10 min after 0.6-0.7 g/kg PO (50 ml 20% w/v), endoscopic grade of gastric ulceration Absent (n = 8)) was 24.9 µM, the concentration at 10 min ([1]; 10 min after 0.6-0.7 g/kg PO, ulceration Mild (n = 4)) was 44.6 µM and the concentration at 10 min ([1]; 10 min after 0.6-0.7 g/kg PO, ulceration Moderate to severe (n = 4)) was 60.9 µM. For the same compound, the concentration at 20 min ([1]; ulceration Absent (n = 8)) was 39.1 µM, the concentration at 20 min ([1]; ulceration Mild (n = 4)) was 68.7 µM and the concentration at 20 min [1, 3] was 94.3 µM. The concentration at 30 min ([1]; ulceration Absent (n = 8)) was 46 µM, the concentration at 30 min ([1]; ulceration Mild (n = 4)) was 88.2 µM and the concentration at 30 min [1, 3] was 144 µM. It also gave a concentration at 60 min ([1]; ulceration Absent (n = 8)) of 61.1 µM, a concentration at 60 min ([1]; ulceration Mild (n = 4)) of 110 µM and a concentration at 60 min [1, 3] of 184 µM. For the same compound, the “rate and extent of systemic lactulose absorption” value ([1]; following ulcer induction versus baseline, each dog) was “increased significantly” and the concentration at 60 min [2] was 275 to 400 µM.
